Measurements as given in patent US20220306647A1, “NOVEL INDOLE-2-CARBOXAMIDES ACTIVE AGAINST THE HEPATITUS B VIRUS (HBV)” (AICURIS GMBH & CO. KG, priority 2019, published 2022).
pEC50, pIC50: −log10 of the molar value.

Legend:
HBV (HepAD38 cells) = test: HBV replication assay: determination of HBV DNA from the supernatants of HepAD38 cells; type: cell-based; details: Hepatitis B virus, 144 h, HBV DNA in HepAD38 supernatant at day 6, qPCR, read-out: Cell activity
Method: Determination of HBV DNA from the Supernatants of HepAD38 Cells
The anti-HBV activity was analysed in the stable transfected cell line HepAD38, which has been described to secrete high levels of HBV virion particles (Ladner et al., 1997). In brief, HepAD38 cells were cultured at 37° C. at 5% CO2 and 95% humidity in 200 μl maintenance medium, which was Dulbecco's modified Eagle's medium/Nutrient Mixture F-12 (Gibco, Karlsruhe), 10% fetal bovine serum (PAN Biotech Aidenbach) supplemented with 50 μg/ml penicillin/streptomycin (Gibco, Karlsruhe), 2 mM L-glutamine (PAN Biotech, Aidenbach), 400 μg/ml G418 (AppliChem, Darmstadt) and 0.3 μg/ml tetracycline. Cells were subcultured once a week in a 1:5 ratio, but were usually not passaged more than ten times. For the assay 60,000 cells were seeded in maintenance medium without any tetracycline into each well of a 96-well plate and treated with serial half-log dilutions of test compound. To minimize edge effects the outer 36 wells of the plate were not used but were filled with assay medium. On each assay plate six wells for the virus control (untreated HepAD38 cells) and six wells for the cell control (HepAD38 cells treated with 0.3 μg/ml tetracycline) were allocated, respectively. In addition, one plate set with reference inhibitors like BAY 41-4109, entecavir, and lamivudine instead of screening compounds were prepared in each experiment. In general, experiments were performed thrice in triplicates. At day 6 HBV DNA from 100 μl filtrated cell culture supernatant (AcroPrep Advance 96 Filter Plate, […] Supor membran, PALL GmbH, Dreieich) was automatically purified on the MagNa Pure LC instrument using the MagNA Pure 96 DNA and Viral NA Small Volume Kit (Roche Diagnostics, Mannheim) according to the instructions of the manufacturer. EC50 values were calculated from relative copy numbers of HBV DNA In brief, 5 μl of the 100 μl eluate containing HBV DNA were subjected to PCR LC480 Probes Master Kit (Roche) together with 1 μM antisense primer […], 0.5 μM sense primer […], 0.3 μM hybprobes […]-FL and LC640-[…]-PH (TIBMolBiol, Berlin) to a final volume of 12.5 μl. The PCR was performed on the Light Cycler 480 real time system (Roche Diagnostics, Mannheim) using the following protocol: Pre-incubation for 1 min at 95° C., amplification: 40 cycles×(10 sec at 95° C., 50 sec at 60° C., 1 sec at 70° C.), cooling for 10 sec at 40° C. Viral load was quantitated against known standards using HBV plasmid DNA of pCH-9/3091 (Nassal et al., 1990, Cell 63: 1357-1363) and the LightCycler 480 SW 1.5 software (Roche Diagnostics, Mannheim) and EC50 values were calculated using non-linear regression with GraphPad Prism 6 (GraphPad Software Inc., La Jolla, USA).

[1] = biological target: T1, HBV core protein (C-terminal truncated core protein, 149 amino acids of the N-terminal assembly domain, BODIPY-FL labelled) (UniProt P03146); test: Biochemical capsid assembly assay (fluorescence quenching); details: assembly started with NaCl, fluorescence read after 6 min, read-out: Assembly activity
T1 construct: fused on or other part: A single cysteine added after residue 149, at position 150; It carries the BODIPY-FL maleimide label
Method in brief: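 Fluorescence quenching of BODIPY-FL-labelled core dimers (1.0 to 2.0 μM) in 50 mM HEPES pH 7.5; compounds at 8 concentrations, 0.5 log-unit dilutions from top 100, 31.6 or 10 μM, 0.5% DMSO. Assembly started with NaCl to […]; fluorescence (ex 477/em 525 nm) read after 6 min. EC50 by non-linear regression.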

T1 sequence (P03146 whole entry, the tested form may be a part): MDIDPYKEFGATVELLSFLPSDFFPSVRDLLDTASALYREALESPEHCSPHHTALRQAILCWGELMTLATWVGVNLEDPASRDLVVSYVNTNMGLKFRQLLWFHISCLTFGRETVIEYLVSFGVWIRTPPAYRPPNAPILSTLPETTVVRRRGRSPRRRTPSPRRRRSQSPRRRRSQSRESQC

Row | Compound | pEC50 (HBV (HepAD38 cells)) | pIC50 [1]
1 | COCC1(N(C)C(=O)c2noc3c2CN(C(=O)c2cc4c(Cl)cccc4[nH]2)CC3)CC1 [Example 5, 5-(4-chloro-1H-indole-2-carbonyl)-N-[1-(methoxymethyl)cyclopropyl]-N-methyl-4H,5H,6H,7H-[1,2]oxazolo[4,5-c]pyridine-3-carboxamide] | > 6.00 | > 5.30
2 | COCC1(N(C)C(=O)c2noc3c2CN(C(=O)c2cc4c(F)cc(F)cc4[nH]2)CC3)CC1 [Example 6, 5-(4,6-difluoro-1H-indole-2-carbonyl)-N-[1-(methoxymethyl)cyclopropyl]-N-methyl-4H,5H,6H,7H-[1,2]oxazolo[4,5-c]pyridine-3-carboxamide] | > 6.00 | > 5.30
3 | COCC1(N(C)C(=O)c2noc3c2CN(C(=O)c2cc4ccccc4[nH]2)CC3)CC1 [Example 7, 5-(1H-indole-2-carbonyl)-N-[1-(methoxymethyl)cyclopropyl]-N-methyl-4H,5H,6H,7H-[1,2]oxazolo[4,5-c]pyridine-3-carboxamide] | > 6.00 | > 5.30
4 | CN(C(=O)c1noc2c1CN(C(=O)c1cc3ccccc3[nH]1)CC2)C1(CO)CC1 [Example 8, N-[I1-(hydroxymethyl)cyclopropyl]-5-(1H-indole-2-carbonyl)-N-methyl-4H,5H,6H,7H-[1,2]oxazolo[4,5-c]pyridine-3-carboxamide] | > 6.00 | > 5.30
5 | O=C(NC1CC1)c1noc2c1CN(C(=O)c1cc3ccccc3[nH]1)CC2 [Example 10, N-cyclopropyl-5-(1H-indole-2-carbonyl)-4H,5H,6H,7H-[1,2]oxazolo[4,5-c]pyridine-3-carboxamide] | > 4.00 | > 5.30
6 | CN(C(=O)c1noc2c1CN(C(=O)c1cc3ccccc3[nH]1)CC2)C1CC1 [Example 11, N-cyclopropyl-5-(1H-indole-2-carbonyl)-N-methyl-4H,5H,6H,7H-[1,2]oxazolo[4,5-c]pyridine-3-carboxamide] | > 4.00 | > 5.30
7 | CN(C(=O)c1cnn2c1CN(C(=O)c1cc3ccccc3[nH]1)CC2)C1(c2ccc(C(=O)O)cc2)CC1 [Example 12, 4-{1-[N-methyl-5-(1H-indole-2-carbonyl)-4H,5H,6H,7H-pyrazolo[1,5-a]pyrazine-3-amido]cyclopropyl}benzoic acid] | > 6.00 | > 5.30
8 | CN(C(=O)c1cnn2c1CN(C(=O)c1cc3ccccc3[nH]1)CC2)C1(c2cccc(C(=O)O)c2)CC1 [Example 13, 3-{1-[N-methyl-5-(1H-indole-2-carbonyl)-4H,5H,6H,7H-pyrazolo[1,5-a]pyrazine-3-amido]cyclopropyl}benzoic acid] | 5.00 to 6.00 | > 5.30
9 | CN1C(=O)c2c3c(nn2CC12CC2)CCN(C(=O)c1cc2ccccc2[nH]1)C3 [Example 14, 12′-(1H-indole-2-carbonyl)-4′-methyl-4′,7′,8′,12′-tetraazaspiro[cyclopropane-1,5′-tricyclo[7.4.0.0^2′7]tridecane]-1′,8′-dien-3′-one] | > 6.00 | > 5.30
10 | CN1C(=O)c2c3c(nn2CC12CC2)CCN(C(=O)c1cc2cc(F)c(Cl)cc2[nH]1)C3 [Example 15, 12′-(6-chloro-5-fluoro-1H-indole-2-carbonyl)-4′-methyl-4′,7′,8′,12′-tetraazaspirol[cyclopropane-1,5′-tricyclo[7.4.0.0^2′7]tridecane]-1′,8′-dien-3′-one] | > 6.00 | > 5.30
11 | Cc1cccc2[nH]c(C(=O)N3CCc4nn5c(c4C3)C(=O)N(C)C3(CC3)C5)cc12 [Example 16, 4′-methyl-12′-(4-methyl-1H-indole-2-carbonyl)-4′,7′,8′,12′-tetraazaspiro[cyclopropane-1,5′-tricyclo[7.4.0.0^2′7]tridecane]-1′,8′-dien-3′-one] | > 6.00 | > 5.30
12 | CN1C(=O)c2c3c(nn2CC12CC2)CCN(C(=O)c1cc2c(Cl)cccc2[nH]1)C3 [Example 17, 12′-(4-chloro-1H-indole-2-carbonyl)-4′-methyl-4′,7′,8′,12′-tetraazaspiro[cyclopropane-1,5′-tricyclo[7.4.0.0^2′7]tridecane]-1′,8′-dien-3′-one] | > 6.00 | > 5.30
13 | Cc1c(F)ccc2[nH]c(C(=O)N3CCc4nn5c(c4C3)C(=O)N(C)C3(CC3)C5)cc12 [Example 18, 12′-(5-fluoro-4-methyl-1H-indole-2-carbonyl)-4′-methyl-4′,7′,8′,12′-tetraazaspiro[cyclopropane-1,5′-tricyclo[7.4.0.0^2′7]tridecane]-1′,8′-dien-3′-one] | > 6.00 | > 5.30
14 | CN(CCO)C(=O)c1noc2c1CN(C(=O)c1cc3c(Cl)cccc3[nH]1)CC2 [Example 21, 5-(4-chloro-1H-indole-2-carbonyl)-N-(2-hydroxyethyl)-N-methyl-4H,5H,6H,7H-[1,2]oxazolo[4,5-c]pyridine-3-carboxamide] | > 6.00 | > 5.30
15 | CN(CCO)C(=O)c1noc2c1CN(C(=O)c1cc3ccccc3[nH]1)CC2 [Example 22, N-(2-hydroxyethyl)-5-(1H-indole-2-carbonyl)-N-methyl-4H,5H,6H,7H-[1,2]oxazolo[4,5-c]pyridine-3-carboxamide] | > 6.00 | > 5.30
16 | CN(CCO)C(=O)c1noc2c1CN(C(=O)c1cc3c(F)cc(F)cc3[nH]1)CC2 [Example 23, 5-(4,6-difluoro-1H-indole-2-carbonyl)-N-(2-hydroxyethyl)-N-methyl-4H,5H,6H,7H-[1,2]oxazolo[4,5-c]pyridine-3-carboxamide] | > 6.00 | > 5.30
17 | CN(Cc1ccccc1C(=O)O)C(=O)c1[nH]nc2c1CN(C(=O)c1cc3ccccc3[nH]1)CC2 [Example 24, 2-({1-[5-(1H-indole-2-carbonyl)-2H,4H,5H,6H,7H-pyrazolo[4,3-c]pyridin-3-yl]-N-methylformamido}methyl)benzoic acid] | 5.00 to 6.00 | > 5.30
18 | CN(Cc1ccccn1)C(=O)c1noc2c1CN(C(=O)c1cc3ccccc3[nH]1)CC2 [Example 26, 5-(1H-indole-2-carbonyl)-N-methyl-N-[(pyridin-2-yl)methyl]-4H,5H,6H,7H-[1,2]oxazolo[4,5-c]pyridine-3-carboxamide] | 5.00 to 6.00 | > 5.30
19 | CN(C(=O)c1cnn2c1CN(C(=O)c1cc3ccccc3[nH]1)CC2)C1(c2ccccc2C(=O)O)CC1 [Example 30, 2-{1-[N-methyl-5-(1H-indole-2-carbonyl)-4H,5H,6H,7H-pyrazolo[1,5-a]pyrazine-3-amido]cyclopropyl}benzoic acid] | 5.00 to 6.00 | > 5.30
20 | CN(C(=O)c1cnn2c1CN(C(=O)c1cc3ccccc3[nH]1)CC2)C1(c2ccc(C(=O)O)cn2)CC1 [Example 31, 6-{1-[N-methyl-5-(1H-indole-2-carbonyl)-4H,5H,6H,7H-pyrazolo[1,5-a]pyrazine-3-amido]cyclopropyl}pyridine-3-carboxylic acid] | > 4.00 | > 5.30
21 | CN(C(=O)c1cnn2c1CN(C(=O)c1cc3cc(F)c(Cl)cc3[nH]1)CC2)C1(c2cccc(C(=O)O)c2)CC1 [Example 33, 3-{1-[N-methyl-5-(6-chloro-5-fluoro-1H-indole-2-carbonyl)-4H,5H,6H,7H-pyrazolo[1,5-a]pyrazine-3-amido]cyclopropyl}benzoic acid] | > 6.00 | > 5.30
22 | CN(C(=O)c1cnn2c1CN(C(=O)c1cc3ccccc3[nH]1)CC2)C1(Cc2ccc(C(=O)O)cc2)CC1 [Example 34, 4-({1-[N-methyl-5-(1H-indole-2-carbonyl)-4H,5H,6H,7H-pyrazolo[1,5-a]pyrazine-3-amido]cyclopropyl}methyl)benzoic acid] | 5.00 to 6.00 | > 5.30
